Assay results published in PubChem BioAssay (NCI).
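All cell lines were grown in 96-well plates and treated with compound for 48 hours. Definition used: TGI = concentration required for complete inhibition of growth.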

Legend:
Experiment in all cases: NCI-60 cell line screen, 48 h
SNB-19 CNS = system: SNB-19 CNS
SF-539 CNS = system: SF-539 CNS
HOP-18 NSCLC = system: HOP-18 NSCLC
EKVX NSCLC = system: EKVX NSCLC
HT29 colon = system: HT29 colon
XF 498 CNS = system: XF 498 CNS
KM20L2 colon = system: KM20L2 colon
KM12 colon = system: KM12 colon
786-0 renal = system: 786-0 renal
DMS 273 small cell lung = system: DMS 273 small cell lung
UO-31 renal = system: UO-31 renal
A498 renal = system: A498 renal
OVCAR-8 ovarian = system: OVCAR-8 ovarian
SN12C renal = system: SN12C renal
COLO 205 colon = system: COLO 205 colon
NCI-H226 lung = system: NCI-H226 lung
MOLT-4 leukemia = system: MOLT-4 leukemia
CCRF-CEM leukemia = system: CCRF-CEM leukemia
LOX IMVI melanoma = system: LOX IMVI melanoma
ACHN renal = system: ACHN renal
DLD-1 colon = system: DLD-1 colon
K-562 leukemia = system: K-562 leukemia
A549 NSCLC = system: A549 NSCLC
SK-MEL-5 melanoma = system: SK-MEL-5 melanoma
HL-60(TB) leukemia = system: HL-60(TB) leukemia
HOP-62 NSCLC = system: HOP-62 NSCLC
LXFL 529 NSCLC = system: LXFL 529 NSCLC
NCI-H522 lung = system: NCI-H522 lung
SW-620 colon = system: SW-620 colon
RXF 393 renal = system: RXF 393 renal
IGROV1 ovarian = system: IGROV1 ovarian
M14 melanoma = system: M14 melanoma
SF-268 CNS = system: SF-268 CNS
SK-MEL-2 melanoma = system: SK-MEL-2 melanoma
UACC-257 melanoma = system: UACC-257 melanoma
SK-OV-3 ovarian = system: SK-OV-3 ovarian
SNB-75 CNS = system: SNB-75 CNS
MALME-3M melanoma = system: MALME-3M melanoma
U251 CNS = system: U251 CNS
HCC-2998 colon = system: HCC-2998 colon
SF-295 CNS = system: SF-295 CNS
M19-MEL melanoma = system: M19-MEL melanoma
CAKI-1 renal = system: CAKI-1 renal
OVCAR-4 ovarian = system: OVCAR-4 ovarian
UACC-62 melanoma = system: UACC-62 melanoma
HOP-92 NSCLC = system: HOP-92 NSCLC
OVCAR-5 ovarian = system: OVCAR-5 ovarian
SK-MEL-28 melanoma = system: SK-MEL-28 melanoma
SR leukemia = system: SR leukemia
OVCAR-3 ovarian = system: OVCAR-3 ovarian
HCT-15 colon = system: HCT-15 colon
DMS 114 small cell lung = system: DMS 114 small cell lung
HCT-116 colon = system: HCT-116 colon
NCI-H23 lung = system: NCI-H23 lung
TK-10 renal = system: TK-10 renal
SNB-78 CNS = system: SNB-78 CNS
NCI-H460 lung = system: NCI-H460 lung
RPMI-8226 leukemia = system: RPMI-8226 leukemia

SMILES: O=C(/C=C/c1ccc(Br)cc1)c1ccc(NCc2nc3ccccc3[nH]2)cc1
- TGI (SNB-19 CNS): > 53.5 µM
- TGI (SF-539 CNS): 24.3 µM
- TGI (HOP-18 NSCLC): > 100 µM
- TGI (EKVX NSCLC): > 100 µM
- TGI (HT29 colon): 27.4 µM
- TGI (XF 498 CNS): 49.3 µM
- TGI (KM20L2 colon): > 100 µM
- TGI (KM12 colon): > 100 µM
- TGI (786-0 renal): > 56.2 µM
- TGI (DMS 273 small cell lung): > 54.6 µM
- TGI (UO-31 renal): 31.2 µM
- TGI (A498 renal): > 87.1 µM
- TGI (OVCAR-8 ovarian): > 52.6 µM
- TGI (SN12C renal): 66.5 µM
- TGI (COLO 205 colon): 13 µM
- TGI (NCI-H226 lung): 54.3 µM
- TGI (MOLT-4 leukemia): 39.9 µM
- TGI (CCRF-CEM leukemia): > 40.1 µM
- TGI (LOX IMVI melanoma): 6.91 µM
- TGI (ACHN renal): 81.2 µM
- TGI (DLD-1 colon): > 67.4 µM
- TGI (K-562 leukemia): > 37.3 µM
- TGI (A549 NSCLC): > 54.7 µM
- TGI (SK-MEL-5 melanoma): > 46.8 µM
- TGI (HL-60(TB) leukemia): > 22.9 µM
- TGI (HOP-62 NSCLC): > 61.2 µM
- TGI (LXFL 529 NSCLC): > 46.2 µM
- TGI (NCI-H522 lung): 19.4 µM
- TGI (SW-620 colon): 21.2 µM
- TGI (RXF 393 renal): 24.4 µM
- TGI (IGROV1 ovarian): > 76.3 µM
- TGI (M14 melanoma): > 100 µM
- TGI (SF-268 CNS): 33 µM
- TGI (SK-MEL-2 melanoma): > 82.1 µM
- TGI (UACC-257 melanoma): > 63.4 µM
- TGI (SK-OV-3 ovarian): > 69.3 µM
- TGI (SNB-75 CNS): 20.6 µM
- TGI (MALME-3M melanoma): > 100 µM
- TGI (U251 CNS): > 36.8 µM
- TGI (HCC-2998 colon): 88.5 µM
- TGI (SF-295 CNS): > 46.3 µM
- TGI (M19-MEL melanoma): > 100 µM
- TGI (CAKI-1 renal): > 57.4 µM
- TGI (OVCAR-4 ovarian): > 62.6 µM
- TGI (UACC-62 melanoma): > 76.2 µM
- TGI (HOP-92 NSCLC): 28.3 µM
- TGI (OVCAR-5 ovarian): > 100 µM
- TGI (SK-MEL-28 melanoma): > 100 µM
- TGI (SR leukemia): 84.6 µM
- TGI (OVCAR-3 ovarian): > 100 µM
- TGI (HCT-15 colon): 17.3 µM
- TGI (DMS 114 small cell lung): > 37.5 µM
- TGI (HCT-116 colon): > 49.1 µM
- TGI (NCI-H23 lung): > 42.5 µM
- TGI (TK-10 renal): > 55.3 µM
- TGI (SNB-78 CNS): 16.6 µM
- TGI (NCI-H460 lung): > 42.2 µM

SMILES: C[Si](C)(c1ccccc1)C1CC(=O)CC(=O)C1
- TGI (SNB-19 CNS): > 100 µM
- TGI (SF-539 CNS): 34.4 µM
- TGI (HOP-18 NSCLC): > 100 µM
- TGI (EKVX NSCLC): > 100 µM
- TGI (HT29 colon): > 100 µM
- TGI (XF 498 CNS): > 100 µM
- TGI (KM20L2 colon): > 100 µM
- TGI (KM12 colon): > 100 µM
- TGI (786-0 renal): 49.9 µM
- TGI (DMS 273 small cell lung): > 100 µM
- TGI (UO-31 renal): 37.6 µM
- TGI (OVCAR-8 ovarian): > 100 µM
- TGI (SN12C renal): > 100 µM
- TGI (COLO 205 colon): > 100 µM
- TGI (NCI-H226 lung): > 100 µM
- TGI (MOLT-4 leukemia): > 100 µM
- TGI (CCRF-CEM leukemia): > 100 µM
- TGI (LOX IMVI melanoma): 42.5 µM
- TGI (ACHN renal): > 100 µM
- TGI (DLD-1 colon): > 100 µM
- TGI (K-562 leukemia): > 100 µM
- TGI (A549 NSCLC): > 100 µM
- TGI (SK-MEL-5 melanoma): > 100 µM
- TGI (HL-60(TB) leukemia): 43.3 µM
- TGI (HOP-62 NSCLC): > 100 µM
- TGI (LXFL 529 NSCLC): > 100 µM
- TGI (NCI-H522 lung): 60.8 µM
- TGI (SW-620 colon): > 100 µM
- TGI (RXF 393 renal): > 100 µM
- TGI (IGROV1 ovarian): 48.3 µM
- TGI (M14 melanoma): > 100 µM
- TGI (SF-268 CNS): > 100 µM
- TGI (SK-MEL-2 melanoma): > 100 µM
- TGI (UACC-257 melanoma): > 100 µM
- TGI (SK-OV-3 ovarian): > 100 µM
- TGI (SNB-75 CNS): > 100 µM
- TGI (MALME-3M melanoma): > 100 µM
- TGI (U251 CNS): > 100 µM
- TGI (HCC-2998 colon): > 100 µM
- TGI (SF-295 CNS): > 100 µM
- TGI (M19-MEL melanoma): > 100 µM
- TGI (CAKI-1 renal): > 100 µM
- TGI (OVCAR-4 ovarian): > 100 µM
- TGI (UACC-62 melanoma): > 100 µM
- TGI (OVCAR-5 ovarian): > 100 µM
- TGI (SK-MEL-28 melanoma): > 100 µM
- TGI (SR leukemia): > 100 µM
- TGI (OVCAR-3 ovarian): > 100 µM
- TGI (HCT-15 colon): > 100 µM
- TGI (DMS 114 small cell lung): > 100 µM
- TGI (HCT-116 colon): > 100 µM
- TGI (NCI-H23 lung): > 100 µM
- TGI (TK-10 renal): > 100 µM
- TGI (RPMI-8226 leukemia): > 100 µM
- TGI (SNB-78 CNS): > 100 µM
- TGI (NCI-H460 lung): > 100 µM

SMILES: O=C1C(=Cc2cccs2)C(=O)N(CCc2ccccc2)S(=O)(=O)N1CCc1ccccc1
- TGI (SNB-19 CNS): > 50 µM
- TGI (SF-539 CNS): > 50 µM
- TGI (HOP-18 NSCLC): > 50 µM
- TGI (EKVX NSCLC): > 50 µM
- TGI (HT29 colon): > 50 µM
- TGI (XF 498 CNS): > 50 µM
- TGI (KM20L2 colon): > 50 µM
- TGI (KM12 colon): > 50 µM
- TGI (786-0 renal): > 50 µM
- TGI (DMS 273 small cell lung): > 50 µM
- TGI (UO-31 renal): > 50 µM
- TGI (OVCAR-8 ovarian): > 50 µM
- TGI (SN12C renal): > 50 µM
- TGI (COLO 205 colon): > 50 µM
- TGI (NCI-H226 lung): > 50 µM
- TGI (MOLT-4 leukemia): > 50 µM
- TGI (CCRF-CEM leukemia): > 50 µM
- TGI (LOX IMVI melanoma): > 50 µM
- TGI (ACHN renal): > 50 µM
- TGI (DLD-1 colon): > 50 µM
- TGI (K-562 leukemia): > 50 µM
- TGI (A549 NSCLC): > 50 µM
- TGI (SK-MEL-5 melanoma): > 50 µM
- TGI (HL-60(TB) leukemia): 38.4 µM
- TGI (LXFL 529 NSCLC): > 50 µM
- TGI (NCI-H522 lung): > 50 µM
- TGI (SW-620 colon): > 50 µM
- TGI (RXF 393 renal): > 50 µM
- TGI (IGROV1 ovarian): 16.5 µM
- TGI (M14 melanoma): > 50 µM
- TGI (SF-268 CNS): > 50 µM
- TGI (SK-MEL-2 melanoma): > 50 µM
- TGI (UACC-257 melanoma): > 50 µM
- TGI (SK-OV-3 ovarian): > 50 µM
- TGI (SNB-75 CNS): > 50 µM
- TGI (MALME-3M melanoma): > 50 µM
- TGI (U251 CNS): 35.2 µM
- TGI (HCC-2998 colon): > 50 µM
- TGI (SF-295 CNS): > 50 µM
- TGI (M19-MEL melanoma): > 50 µM
- TGI (OVCAR-4 ovarian): > 50 µM
- TGI (UACC-62 melanoma): > 50 µM
- TGI (HOP-92 NSCLC): > 50 µM
- TGI (OVCAR-5 ovarian): > 50 µM
- TGI (SK-MEL-28 melanoma): > 50 µM
- TGI (SR leukemia): > 50 µM
- TGI (OVCAR-3 ovarian): > 50 µM
- TGI (HCT-15 colon): > 50 µM
- TGI (DMS 114 small cell lung): 22.2 µM
- TGI (HCT-116 colon): 30.4 µM
- TGI (NCI-H23 lung): > 50 µM
- TGI (TK-10 renal): > 50 µM
- TGI (RPMI-8226 leukemia): > 50 µM
- TGI (SNB-78 CNS): > 50 µM
- TGI (NCI-H460 lung): > 50 µM
